Patent US20240082228A1, “SARS-COV-2 THERAPEUTICS” (priority 2021, published 2024)
“And” between values parts separate entries of the source, which are not always exact repeats. Identical values can stand only once. Like-named read-outs stand apart in the source and are kept apart here.

What was measured:
SARS-CoV-2 = test: microbe, parasite or virus in culture; type: cell-based; conditions: for activity at 1 µM: Severe acute respiratory syndrome coronavirus 2, 1 uM, read-out: Normalized Infection (1 uM); for activity at 1 µM / activity at 5 µM: single replicate, relative to negative control DMSO; for HIT: overall, 1 or 5 uM; for activity at 5 µM: Severe acute respiratory syndrome coronavirus 2, 5 uM, read-out: Normalized Infection (5 uM)
[1] = for Average Cell Number (1 uM) / Cell Number (1 uM) / Normalized Cell Number (1 uM): compound at 1 uM; for Average Cell Number (1 uM) / Average Cell Number (5 uM): average of normalized cell number, n=3, relative to DMSO; for Cell Number (1 uM) / Normalized Cell Number (1 uM) / Cell Number (5 uM) / Normalized Cell Number (5 uM): single replicate; for Cell Number (1 uM) / Cell Number (5 uM): raw cell count; for Normalized Cell Number (1 uM) / Normalized Cell Number (5 uM): relative to negative control DMSO; for Average Cell Number (5 uM) / Cell Number (5 uM) / Normalized Cell Number (5 uM): compound at 5 uM
[2] = 1 uM, average log2FC infection (n=3) relative to DMSO
[3] = 5 uM, average log2FC infection (n=3) relative to DMSO

Row | Compound | HIT (2 Std, 1 uM) (SARS-CoV-2; 1 uM) | Average Infection (1 uM) (SARS-CoV-2; [2]) | Average Infection (5 uM) (SARS-CoV-2; [3]) | activity at 1 µM (SARS-CoV-2) | HIT (SARS-CoV-2) | Toxic (1 uM) [1] | Toxic (5 uM) [1] | Average Cell Number (1 uM) [1] | Cell Number (1 uM) [1] | Normalized Cell Number (1 uM) [1] | Average Cell Number (5 uM) [1] | Cell Number (5 uM) [1] | Normalized Cell Number (5 uM) [1] | activity at 5 µM (SARS-CoV-2) | Average Infection (1 uM) (SARS-CoV-2) | Average Infection (5 uM) (SARS-CoV-2) | HIT (2 Stdv, 5 uM) (SARS-CoV-2; 5 uM)
1 | CN(C)[C@@H]1C(O)=C(C(N)=O)C(=O)[C@@]2(O)C(O)=C3C(=O)c4c(O)cccc4[C@@](C)(O)[C@H]3[C@H](O)[C@@H]12 [Oxytetracycline, oxytetracycline] | HIT | −0.4729 | −0.1642 | 83.8% | Yes | 0 (non-toxic (Normalized Cell number>0.65) | 0 (non-toxic (Normalized Cell number>0.65) | 0.8352 | 5031 and 4848 and 4803 | 0.8585 and 0.8273 and 0.8196 | 0.976 | 6014 and 5768 and 5570 | 1.015 and 0.9733 and 0.9399 |  |  |  | 
2 | N=C(N)c1ccc2nc(-c3cc(CC(=O)N[C@@H](CC(=O)O)C(=O)O)cc(-c4cc(S(N)(=O)=O)ccc4O)c3O)[nH]c2c1 [PCl 27483, pci-27483] | HIT | −0.6789 | 0.006187 | 58% | Yes | 0 (non-toxic (Normalized Cell number>0.65) | 0 (non-toxic (Normalized Cell number>0.65) | 0.775 | 4643 and 4781 and 4200 | 0.7923 and 0.8159 and 0.7167 | 0.9439 | 5909 and 5702 and 5170 | 0.9971 and 0.9622 and 0.8724 | 104% |  |  | 
3 | CC(C)OC(=O)[C@H](C)N[P@](=O)(OC[C@H]1O[C@@H](n2ccc(=O)[nH]c2=O)[C@](C)(F)[C@@H]1O)Oc1ccccc1 [PSI-7977, Sofosbuvir] |  |  |  | 80.9% | Yes | 0 (non-toxic (Normalized Cell number>0.65) | 0 (non-toxic (Normalized Cell number>0.65) | 1.039 | 6209 and 5916 and 6135 | 1.06 and 1.01 and 1.047 | 0.991 | 5941 and 5681 and 5997 | 1.002 and 0.9586 and 1.012 | 70.5% | −0.27 | −0.4905 | HIT
4 | CCC[C@H](N[C@@H](C)C(=O)N1[C@H](C(=O)O)C[C@@H]2CCCC[C@@H]21)C(=O)OCC [Perindopril, perindopril] | HIT | −0.8775 | −0.1846 | 62.3% | Yes | 0 (non-toxic (Normalized Cell number>0.65) | 0 (non-toxic (Normalized Cell number>0.65) | 0.7365 | 4330 and 4259 and 4358 | 0.7389 and 0.7268 and 0.7437 | 0.9903 | 5734 and 6091 and 5782 | 0.9676 and 1.028 and 0.9757 | 96.4% |  |  | 
5 | CCCCC[C@H](O)/C=C/[C@@H]1[C@@H](C/C=C\CCCC(=O)O)[C@@H](O)C[C@H]1O [Prostagladin F2a, dinoprost] | HIT | −0.6806 | −0.2282 | 58.9% | Yes |  |  | 0.8973 |  | 0.8613 and 0.9247 and 0.906 | 0.9858 |  | 0.988 and 0.9765 and 0.9929 | 83.1% |  |  | 
